Assay: Comparison of blood concentrations of donepezil after injection or oral administration
Format: in vivo
Conditions: beagle dog, orally administered

donepezil
blood concentration duration: very short for about one day
